According to PubChem BioAssay (NCI):
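Following 48 hours of exposure in 96-well plates, responses at five concentrations were used to interpolate endpoints linearly. Abbreviation: GI50, concentration required for 50% inhibition of growth. TGI: total growth inhibition.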

Columns and labels:
Experiment in all cases: inhibition of tumour cell growth, NCI panel, 48 h
SW-620 colon = test system: SW-620 colon
MDA-MB-231 breast = test system: MDA-MB-231 breast
K-562 leukemia = test system: K-562 leukemia
SK-OV-3 ovarian = test system: SK-OV-3 ovarian
SF-295 CNS = test system: SF-295 CNS
OVCAR-3 ovarian = test system: OVCAR-3 ovarian
MALME-3M melanoma = test system: MALME-3M melanoma
SR leukemia = test system: SR leukemia
UACC-257 melanoma = test system: UACC-257 melanoma
SNB-75 CNS = test system: SNB-75 CNS
RXF 393 renal = test system: RXF 393 renal
HT29 colon = test system: HT29 colon
UACC-62 melanoma = test system: UACC-62 melanoma
IGROV1 ovarian = test system: IGROV1 ovarian
OVCAR-8 ovarian = test system: OVCAR-8 ovarian
HCT-15 colon = test system: HCT-15 colon
NCI-H226 lung = test system: NCI-H226 lung
786-0 renal = test system: 786-0 renal
HOP-92 NSCLC = test system: HOP-92 NSCLC
T-47D breast = test system: T-47D breast
SF-268 CNS = test system: SF-268 CNS
UO-31 renal = test system: UO-31 renal
A498 renal = test system: A498 renal
HS 578T breast = test system: HS 578T breast
COLO 205 colon = test system: COLO 205 colon
BT-549 breast = test system: BT-549 breast
NCI-H23 lung = test system: NCI-H23 lung
M14 melanoma = test system: M14 melanoma
NCI-H522 lung = test system: NCI-H522 lung
HOP-62 NSCLC = test system: HOP-62 NSCLC
CCRF-CEM leukemia = test system: CCRF-CEM leukemia
U251 CNS = test system: U251 CNS
NCI/ADR-RES ovarian = test system: NCI/ADR-RES ovarian
KM12 colon = test system: KM12 colon
MCF7 breast = test system: MCF7 breast
SK-MEL-28 melanoma = test system: SK-MEL-28 melanoma
OVCAR-5 ovarian = test system: OVCAR-5 ovarian
A549 NSCLC = test system: A549 NSCLC
SK-MEL-5 melanoma = test system: SK-MEL-5 melanoma
OVCAR-4 ovarian = test system: OVCAR-4 ovarian
EKVX NSCLC = test system: EKVX NSCLC
MDA-MB-435 = test system: MDA-MB-435
SK-MEL-2 melanoma = test system: SK-MEL-2 melanoma
HL-60(TB) leukemia = test system: HL-60(TB) leukemia
CAKI-1 renal = test system: CAKI-1 renal
DU-145 prostate = test system: DU-145 prostate
MOLT-4 leukemia = test system: MOLT-4 leukemia
SF-539 CNS = test system: SF-539 CNS
HCC-2998 colon = test system: HCC-2998 colon
SNB-19 CNS = test system: SNB-19 CNS
RPMI-8226 leukemia = test system: RPMI-8226 leukemia
NCI-H460 lung = test system: NCI-H460 lung
TK-10 renal = test system: TK-10 renal
LOX IMVI melanoma = test system: LOX IMVI melanoma
PC-3 prostate = test system: PC-3 prostate
ACHN renal = test system: ACHN renal
HCT-116 colon = test system: HCT-116 colon
SN12C renal = test system: SN12C renal

Cc1ccc(CN(C)c2ccc(CO)c(Cl)c2)cc1
GI50 (SW-620 colon): 5.23 µM
TGI (SW-620 colon): > 100 µM
GI50 (MDA-MB-231 breast): 21.9 µM
TGI (MDA-MB-231 breast): > 100 µM
GI50 (K-562 leukemia): 6.05 µM
TGI (K-562 leukemia): > 100 µM
GI50 (SK-OV-3 ovarian): 5.8 µM
TGI (SK-OV-3 ovarian): 30.3 µM
GI50 (SF-295 CNS): 3.37 µM
TGI (SF-295 CNS): > 76 µM
GI50 (OVCAR-3 ovarian): 3.06 µM
TGI (OVCAR-3 ovarian): 12.5 µM
GI50 (MALME-3M melanoma): 19.7 µM
TGI (MALME-3M melanoma): 59 µM
GI50 (SR leukemia): 23.7 µM
TGI (SR leukemia): > 86.8 µM
GI50 (UACC-257 melanoma): 0.344 µM
TGI (UACC-257 melanoma): 1.31 µM
GI50 (SNB-75 CNS): 17.2 µM
TGI (SNB-75 CNS): 78.2 µM
GI50 (RXF 393 renal): 6.9 µM
TGI (RXF 393 renal): 26.5 µM
GI50 (HT29 colon): 6.07 µM
TGI (HT29 colon): 30 µM
GI50 (UACC-62 melanoma): 0.282 µM
TGI (UACC-62 melanoma): 2.71 µM
GI50 (IGROV1 ovarian): 0.363 µM
TGI (IGROV1 ovarian): 2.52 µM
GI50 (OVCAR-8 ovarian): 14.3 µM
TGI (OVCAR-8 ovarian): > 80.1 µM
GI50 (HCT-15 colon): 13.4 µM
TGI (HCT-15 colon): > 100 µM
GI50 (NCI-H226 lung): 0.119 µM
TGI (NCI-H226 lung): 0.257 µM
GI50 (786-0 renal): 11.8 µM
TGI (786-0 renal): 31.9 µM
GI50 (HOP-92 NSCLC): 1.98 µM
TGI (HOP-92 NSCLC): 36.7 µM
GI50 (T-47D breast): 0.367 µM
TGI (T-47D breast): 2.4 µM
GI50 (SF-268 CNS): 30.8 µM
TGI (SF-268 CNS): > 100 µM
GI50 (UO-31 renal): 6.54 µM
TGI (UO-31 renal): 75.9 µM
GI50 (A498 renal): 0.056 µM
TGI (A498 renal): 0.196 µM
GI50 (HS 578T breast): 26.2 µM
TGI (HS 578T breast): > 100 µM
GI50 (COLO 205 colon): 3.24 µM
TGI (COLO 205 colon): 10.5 µM
GI50 (BT-549 breast): 13.2 µM
TGI (BT-549 breast): 37 µM
GI50 (NCI-H23 lung): 12.6 µM
TGI (NCI-H23 lung): > 80 µM
GI50 (M14 melanoma): 20.9 µM
TGI (M14 melanoma): > 65.1 µM
GI50 (NCI-H522 lung): 17.2 µM
TGI (NCI-H522 lung): 65.6 µM
GI50 (HOP-62 NSCLC): 3.44 µM
TGI (HOP-62 NSCLC): 29.9 µM
GI50 (CCRF-CEM leukemia): 33.7 µM
TGI (CCRF-CEM leukemia): > 100 µM
GI50 (U251 CNS): 3.92 µM
TGI (U251 CNS): 39.9 µM
GI50 (NCI/ADR-RES ovarian): 16.1 µM
TGI (NCI/ADR-RES ovarian): 63.2 µM
GI50 (KM12 colon): 21.3 µM
TGI (KM12 colon): 72 µM
GI50 (MCF7 breast): 0.676 µM
TGI (MCF7 breast): 12 µM
GI50 (SK-MEL-28 melanoma): 15.6 µM
TGI (SK-MEL-28 melanoma): 53.6 µM
GI50 (OVCAR-5 ovarian): 0.446 µM
TGI (OVCAR-5 ovarian): 2.48 µM
GI50 (A549 NSCLC): 3.69 µM
TGI (A549 NSCLC): 27.7 µM
GI50 (SK-MEL-5 melanoma): 5.44 µM
TGI (SK-MEL-5 melanoma): 18 µM
GI50 (OVCAR-4 ovarian): 1.52 µM
TGI (OVCAR-4 ovarian): 13.7 µM
GI50 (EKVX NSCLC): 18.6 µM
TGI (EKVX NSCLC): 79.7 µM
GI50 (MDA-MB-435): 29.8 µM
TGI (MDA-MB-435): > 100 µM
GI50 (SK-MEL-2 melanoma): 8.26 µM
TGI (SK-MEL-2 melanoma): 31 µM
GI50 (HL-60(TB) leukemia): 15.1 µM
TGI (HL-60(TB) leukemia): 56 µM
GI50 (CAKI-1 renal): 2.4 µM
TGI (CAKI-1 renal): 45.8 µM
GI50 (DU-145 prostate): 22.6 µM
TGI (DU-145 prostate): > 100 µM
GI50 (MOLT-4 leukemia): 25.4 µM
TGI (MOLT-4 leukemia): > 79.7 µM
GI50 (SF-539 CNS): 30 µM
TGI (SF-539 CNS): > 94.1 µM
GI50 (HCC-2998 colon): 13.9 µM
TGI (HCC-2998 colon): > 60.6 µM
GI50 (SNB-19 CNS): 34.8 µM
TGI (SNB-19 CNS): > 100 µM
GI50 (RPMI-8226 leukemia): 10.2 µM
TGI (RPMI-8226 leukemia): > 65.2 µM
GI50 (NCI-H460 lung): 1.17 µM
TGI (NCI-H460 lung): 11.5 µM
GI50 (TK-10 renal): 0.194 µM
TGI (TK-10 renal): 0.938 µM
GI50 (LOX IMVI melanoma): 17.9 µM
TGI (LOX IMVI melanoma): > 52.7 µM
GI50 (PC-3 prostate): 24.2 µM
TGI (PC-3 prostate): 97.5 µM
GI50 (ACHN renal): 23.6 µM
TGI (ACHN renal): > 100 µM
GI50 (HCT-116 colon): 0.395 µM
TGI (HCT-116 colon): 11.6 µM
GI50 (SN12C renal): 14 µM
TGI (SN12C renal): 49.5 µM
